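Cultured in 96-well plates, cells were exposed to test compound for 48 hours across five concentrations. The concentration for 50% growth inhibition is given as GI50. TGI: concentration producing complete growth inhibition.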
Assays:
Experiment in all cases: NCI-60 cell line screen, 48 h
TK-10 renal = system: TK-10 renal
UACC-257 melanoma = system: UACC-257 melanoma
SN12C renal = system: SN12C renal
SK-OV-3 ovarian = system: SK-OV-3 ovarian
RXF 393 renal = system: RXF 393 renal
SF-295 CNS = system: SF-295 CNS
LOX IMVI melanoma = system: LOX IMVI melanoma
HOP-62 NSCLC = system: HOP-62 NSCLC
MOLT-4 leukemia = system: MOLT-4 leukemia
MDA-MB-231 breast = system: MDA-MB-231 breast
OVCAR-5 ovarian = system: OVCAR-5 ovarian
HCT-116 colon = system: HCT-116 colon
SK-MEL-28 melanoma = system: SK-MEL-28 melanoma
RPMI-8226 leukemia = system: RPMI-8226 leukemia
NCI-H522 lung = system: NCI-H522 lung
SF-268 CNS = system: SF-268 CNS
BT-549 breast = system: BT-549 breast
NCI/ADR-RES ovarian = system: NCI/ADR-RES ovarian
DU-145 prostate = system: DU-145 prostate
UO-31 renal = system: UO-31 renal
T-47D breast = system: T-47D breast
SW-620 colon = system: SW-620 colon
SK-MEL-2 melanoma = system: SK-MEL-2 melanoma
COLO 205 colon = system: COLO 205 colon
A498 renal = system: A498 renal
NCI-H460 lung = system: NCI-H460 lung
MCF7 breast = system: MCF7 breast
UACC-62 melanoma = system: UACC-62 melanoma
OVCAR-4 ovarian = system: OVCAR-4 ovarian
SNB-75 CNS = system: SNB-75 CNS
IGROV1 ovarian = system: IGROV1 ovarian
M14 melanoma = system: M14 melanoma
MDA-MB-435 = system: MDA-MB-435
OVCAR-3 ovarian = system: OVCAR-3 ovarian
OVCAR-8 ovarian = system: OVCAR-8 ovarian
786-0 renal = system: 786-0 renal
NCI-H23 lung = system: NCI-H23 lung
SF-539 CNS = system: SF-539 CNS
ACHN renal = system: ACHN renal
HL-60(TB) leukemia = system: HL-60(TB) leukemia
HCT-15 colon = system: HCT-15 colon
HS 578T breast = system: HS 578T breast
K-562 leukemia = system: K-562 leukemia
PC-3 prostate = system: PC-3 prostate
HOP-92 NSCLC = system: HOP-92 NSCLC
NCI-H226 lung = system: NCI-H226 lung
HCC-2998 colon = system: HCC-2998 colon
U251 CNS = system: U251 CNS
KM12 colon = system: KM12 colon
SK-MEL-5 melanoma = system: SK-MEL-5 melanoma
CAKI-1 renal = system: CAKI-1 renal
HT29 colon = system: HT29 colon
MALME-3M melanoma = system: MALME-3M melanoma
SNB-19 CNS = system: SNB-19 CNS
EKVX NSCLC = system: EKVX NSCLC
A549 NSCLC = system: A549 NSCLC

Molecule COc1cc2c3c(n(CCCN)c(=O)c2cc1OC)-c1ccccc1C3=O has a GI50 (TK-10 renal) of 2.14 µM, a TGI (TK-10 renal) of 6.31 µM and a GI50 (UACC-257 melanoma) of 6.3 µM. It also gave a TGI (UACC-257 melanoma) of 27.8 µM, a GI50 (SN12C renal) of 0.934 µM and a TGI (SN12C renal) of 5.08 µM. For the same molecule, the GI50 (SK-OV-3 ovarian) was 5.62 µM, the TGI (SK-OV-3 ovarian) was 23 µM and the GI50 (RXF 393 renal) was 1.04 µM. The TGI (RXF 393 renal) was 2.56 µM, the GI50 (SF-295 CNS) was 0.0709 µM and the TGI (SF-295 CNS) was 5.24 µM. For the same molecule, the GI50 (LOX IMVI melanoma) was 0.125 µM, the TGI (LOX IMVI melanoma) was 1.02 µM and the GI50 (HOP-62 NSCLC) was 0.351 µM. The TGI (HOP-62 NSCLC) was 2.96 µM, the TGI (MOLT-4 leukemia) was 7.12 µM and the GI50 (MDA-MB-231 breast) was 1.23 µM. It also gave a TGI (MDA-MB-231 breast) of 3.02 µM, a GI50 (OVCAR-5 ovarian) of 14.3 µM and a TGI (OVCAR-5 ovarian) of 29.2 µM. It also gave a GI50 (HCT-116 colon) of 0.0101 µM, a TGI (HCT-116 colon) of 0.172 µM and a GI50 (SK-MEL-28 melanoma) of 9.99 µM. For the same molecule, the TGI (SK-MEL-28 melanoma) was over 46.8 µM, the GI50 (RPMI-8226 leukemia) was 0.0772 µM and the GI50 (NCI-H522 lung) was 0.339 µM. The TGI (NCI-H522 lung) was 22.7 µM, the GI50 (SF-268 CNS) was 1.71 µM and the TGI (SF-268 CNS) was over 21.6 µM. It also gave a GI50 (BT-549 breast) of 4.85 µM, a TGI (BT-549 breast) of 13.9 µM and a GI50 (NCI/ADR-RES ovarian) of 2.28 µM. For the same molecule, the TGI (NCI/ADR-RES ovarian) was 9.75 µM, the GI50 (DU-145 prostate) was 1.83 µM and the TGI (DU-145 prostate) was 4.81 µM. The GI50 (UO-31 renal) was 1.8 µM, the TGI (UO-31 renal) was 13.1 µM and the GI50 (T-47D breast) was 7.18 µM. It also gave a TGI (T-47D breast) of 39 µM, a GI50 (SW-620 colon) of 1.89 µM and a TGI (SW-620 colon) of over 100 µM. The GI50 (SK-MEL-2 melanoma) was 14.3 µM, the TGI (SK-MEL-2 melanoma) was 35.5 µM and the GI50 (COLO 205 colon) was 0.472 µM. For the same molecule, the TGI (COLO 205 colon) was 5.72 µM, the GI50 (A498 renal) was 1.9 µM and the TGI (A498 renal) was 9.51 µM. The GI50 (NCI-H460 lung) was 0.176 µM, the GI50 (MCF7 breast) was 0.316 µM and the TGI (MCF7 breast) was 2.11 µM. It also gave a GI50 (UACC-62 melanoma) of 1.73 µM, a TGI (UACC-62 melanoma) of 16 µM and a GI50 (OVCAR-4 ovarian) of 2.29 µM. It also gave a TGI (OVCAR-4 ovarian) of 12.7 µM, a GI50 (SNB-75 CNS) of 4.6 µM and a TGI (SNB-75 CNS) of 11.6 µM. It also gave a GI50 (IGROV1 ovarian) of 1.45 µM, a TGI (IGROV1 ovarian) of over 100 µM and a GI50 (M14 melanoma) of 0.199 µM. It also gave a TGI (M14 melanoma) of 2.28 µM, a GI50 (MDA-MB-435) of 0.755 µM and a TGI (MDA-MB-435) of 18.9 µM. For the same molecule, the GI50 (OVCAR-3 ovarian) was 0.26 µM, the TGI (OVCAR-3 ovarian) was 4.2 µM and the GI50 (OVCAR-8 ovarian) was 0.455 µM. It also gave a TGI (OVCAR-8 ovarian) of 6.65 µM, a GI50 (786-0 renal) of 0.396 µM and a TGI (786-0 renal) of 2.02 µM. The GI50 (NCI-H23 lung) was 1.25 µM, the TGI (NCI-H23 lung) was 6.03 µM and the GI50 (SF-539 CNS) was 1.25 µM. For the same molecule, the TGI (SF-539 CNS) was 5.23 µM, the GI50 (ACHN renal) was 1.14 µM and the TGI (ACHN renal) was 8.1 µM. For the same molecule, the GI50 (HL-60(TB) leukemia) was 5.09 µM, the TGI (HL-60(TB) leukemia) was over 100 µM and the GI50 (HCT-15 colon) was 1 µM. For the same molecule, the GI50 (HS 578T breast) was 11.1 µM, the TGI (HS 578T breast) was 46.9 µM and the GI50 (K-562 leukemia) was 0.911 µM. It also gave a GI50 (PC-3 prostate) of 0.723 µM, a TGI (PC-3 prostate) of 2.69 µM and a GI50 (HOP-92 NSCLC) of 15.2 µM. It also gave a TGI (HOP-92 NSCLC) of 36.7 µM, a GI50 (NCI-H226 lung) of 4.31 µM and a TGI (NCI-H226 lung) of 16.1 µM. It also gave a GI50 (HCC-2998 colon) of 0.531 µM, a TGI (HCC-2998 colon) of 2.11 µM and a GI50 (U251 CNS) of 0.557 µM. It also gave a TGI (U251 CNS) of 3.43 µM, a GI50 (KM12 colon) of 0.517 µM and a TGI (KM12 colon) of 2.5 µM. It also gave a GI50 (SK-MEL-5 melanoma) of 2.02 µM, a TGI (SK-MEL-5 melanoma) of 19.8 µM and a GI50 (CAKI-1 renal) of 0.282 µM. For the same molecule, the TGI (CAKI-1 renal) was 2.94 µM, the GI50 (HT29 colon) was 0.164 µM and the GI50 (MALME-3M melanoma) was 0.0918 µM. For the same molecule, the TGI (MALME-3M melanoma) was 17.5 µM, the GI50 (SNB-19 CNS) was 2.95 µM and the TGI (SNB-19 CNS) was over 42 µM. It also gave a GI50 (EKVX NSCLC) of 3.85 µM and a TGI (EKVX NSCLC) of 10.3 µM.
Molecule O=C(OCc1ccccc1CN1CCOCC1)c1cccc(Br)c1 has a TGI (UACC-257 melanoma) of 63.4 µM, a TGI (SN12C renal) of over 100 µM and a TGI (SK-OV-3 ovarian) of over 100 µM. For the same molecule, the TGI (A549 NSCLC) was over 100 µM, the TGI (RXF 393 renal) was over 100 µM and the TGI (LOX IMVI melanoma) was over 100 µM. For the same molecule, the TGI (HOP-62 NSCLC) was over 100 µM, the TGI (MDA-MB-231 breast) was over 100 µM and the TGI (OVCAR-5 ovarian) was over 100 µM. The TGI (HCT-116 colon) was over 100 µM, the TGI (SK-MEL-28 melanoma) was over 100 µM and the TGI (NCI-H522 lung) was 53.4 µM. It also gave a TGI (SF-268 CNS) of over 100 µM, a TGI (BT-549 breast) of over 100 µM and a TGI (NCI/ADR-RES ovarian) of 79.8 µM. The TGI (DU-145 prostate) was over 100 µM, the TGI (UO-31 renal) was over 100 µM and the TGI (T-47D breast) was 49.6 µM. It also gave a TGI (SW-620 colon) of over 100 µM, a TGI (SK-MEL-2 melanoma) of 52.9 µM and a TGI (COLO 205 colon) of over 100 µM. The TGI (A498 renal) was over 100 µM, the TGI (NCI-H460 lung) was over 100 µM and the TGI (MCF7 breast) was over 100 µM. It also gave a TGI (UACC-62 melanoma) of over 100 µM, a TGI (OVCAR-4 ovarian) of 70 µM and a TGI (SNB-75 CNS) of over 100 µM. It also gave a TGI (IGROV1 ovarian) of over 100 µM, a TGI (M14 melanoma) of over 100 µM and a TGI (MDA-MB-435) of over 100 µM. It also gave a TGI (OVCAR-3 ovarian) of 44.3 µM, a TGI (OVCAR-8 ovarian) of over 100 µM and a TGI (786-0 renal) of over 100 µM. The TGI (NCI-H23 lung) was 80 µM, the TGI (SF-539 CNS) was over 100 µM and the TGI (ACHN renal) was over 100 µM. For the same molecule, the TGI (HCT-15 colon) was over 100 µM, the TGI (HS 578T breast) was over 100 µM and the TGI (K-562 leukemia) was over 100 µM. For the same molecule, the TGI (PC-3 prostate) was over 100 µM, the TGI (HOP-92 NSCLC) was over 100 µM and the TGI (NCI-H226 lung) was over 100 µM. It also gave a TGI (HCC-2998 colon) of over 100 µM, a TGI (U251 CNS) of over 100 µM and a TGI (SK-MEL-5 melanoma) of 33.3 µM. The TGI (CAKI-1 renal) was 64.6 µM, the TGI (HT29 colon) was 29.5 µM and the TGI (MALME-3M melanoma) was 45 µM. The TGI (SNB-19 CNS) was over 100 µM and the TGI (EKVX NSCLC) was over 100 µM.
